This note sets out measurements from US8829014B2, “Thiazole and thiophene analogues, and their use in treating autoimmune diseases and cancers” (Board of Supervisors of Louisiana State University and …, priority 2006, dated 2014).

A value given as a limit tells only on which side of the number the result lay.

In one data set the test system is NF-κB. The data set is described as follows: NF-κB inhibitor screen: basal NF-κB-dependent luciferase expression in HEK/NF-κB cell line. It counts as cell-based. Particulars: 1 uM; determined as described in Example 398; read-out: NFkB inhibition @ 1 uM. An outline of the steps:
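Basal NF-κB-driven luciferase (six-copy element, stable HEK293 line) was read with Brite-Glo. Compound was added in 0.3% DMSO 24 h post-plating, initially at 1.0 μM and then across 10–3300 nM in six steps, in triplicate wells. Signals were expressed relative to DMSO or to the lowest concentration tested.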

Another data set deals with AP-1. The data set is described as follows: AP-1 inhibitor screen: basal AP-1-dependent luciferase expression in HEK/AP-1 cell line. It is filed as cell-based. Particulars: AP1; 1 uM; determined as described in Example 398. An outline of the steps:
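Compound effects on unstimulated reporter signal were tested: 1.0 μM compound (0.3% DMSO) for 48 hr on HEK cells bearing an AP-1 (TGACTAA ×3)-luciferase construct, seeded 24 hr earlier. Triplicate luminescence means were normalized to DMSO-only wells; dose-response experiments were repeated 2–4 times.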

Molecule `COC(=O)Nc1nc(-c2ccccc2)c(-c2nc3ccccc3c(=O)n2-c2ccccc2C)s1` [Example 172, [5-(4-Oxo-3-o-tolyl-3,4-dihydro-quinazolin-2-yl)-4-phenyl-thiazol-2-yl]-carbamic acid methyl ester] showed a melting point of more than 275 °C. Also, the inhibition at 1 µM in the data set with NF-κB is 0%. Further, the inhibition at 1 µM in the data set with AP-1 amounted to 25%.
`Cc1ccc(C(=O)Nc2nc(-c3ccccc3)c(-c3nc4ccccc4c(=O)n3-c3ccccc3C)s2)cc1` [Example 176, 4-Methyl-N-[5-(4-oxo-3-o-tolyl-3,4-dihydroquinazolin-2-yl)-4-phenyl-thiazol-2-yl]-benzamide]: the melting point is more than 275 °C. Besides, the inhibition at 1 µM with NF-κB was -8%. Besides, the inhibition at 1 µM with AP-1 amounted to 29%.
In turn, `CNc1nc(C)c(-c2nc3ccccc3c(=O)n2-c2cccc(C)c2)s1` [Example 181, 2-(4-methyl-2-methylamino-thiazol-5-yl)-3-m-tolyl-3H-quinazolin-4-one] displayed a melting point of more than 275 °C. In addition, the inhibition at 1 µM with NF-κB stood at 10%. Moreover, the inhibition at 1 µM in the data set with AP-1 worked out at 20%.
As for `Cc1cccc(-n2c(-c3sc(Nc4ccc(Cl)cc4)nc3C)nc3ccccc3c2=O)c1` [Example 183, 2-[2-(4-Chlorophenylamino)-4-methyl-thiazol-5-yl]-3-m-tolyl-3H-quinazolin-4-one], the melting point lay in the range of 236 to 238 °C. In the data set with NF-κB, the inhibition at 1 µM came out at 2%. Moreover, in the data set with AP-1, the inhibition at 1 µM was determined as 39%.
For `CCOC(=O)Nc1nc(-c2ccccc2)c(-c2nc3ccccc3c(=O)n2-c2cccc(C)c2)s1` [Example 184, [5-(4-Oxo-3-m-tolyl-3,4-dihydro-quinazolin-2-yl)-4-phenyl-thiazol-2-yl]-carbamic acid ethyl ester], the melting point fell in the range of 261 to 263 °C.
The same measure, in the same setting: for `COC(=O)Nc1nc(-c2ccccc2)c(-c2nc3ccccc3c(=O)n2-c2cccc(C)c2)s1` [Example 185, [5-(4-Oxo-3-m-tolyl-3,4-dihydro-quinazolin-2-yl)-4-phenyl-thiazol-2-yl]-carbamic acid methyl ester] the value was 268 to 269 °C.
Consider `CNc1nc(-c2ccccc2)c(-c2nc3ccccc3c(=O)n2-c2cccc(C)c2)s1` [Example 186, 2-(2-methylamino-4-phenyl-thiazol-5-yl)-3-m-tolyl-3H-quinazolin-4-one], for which the melting point lay in the range of 186 to 187 °C. The inhibition at 1 µM with NF-κB stood at 23%. Besides, the inhibition at 1 µM in the data set on AP-1 was determined as 10%.
Molecule `Cc1cccc(-n2c(-c3sc(Nc4ccccc4)nc3-c3ccccc3)nc3ccccc3c2=O)c1` [Example 187, 3-m-Tolyl-2-(4-phenyl-2-phenylamino-thiazol-5-yl)-3H-quinazolin-4-one] had a melting point of 105 to 107 °C.
Molecule `Cc1ccc(-n2c(-c3sc(Nc4ccccc4)nc3C)nc3ccccc3c2=O)cc1` [Example 191, 2-(4-Methyl-2-phenylamino-thiazol-5-yl)-3-p-tolyl-3H-quinazolin-4-one] came in with a melting point of 256 to 257 °C.
The molecule `COC(=O)Nc1nc(-c2ccccc2)c(-c2nc3ccccc3c(=O)n2-c2ccc(C)cc2)s1` [Example 194, [5-(4-Oxo-3-p-tolyl-3,4-dihydro-quinazolin-2-yl)-4-phenyl-thiazol-2-yl]-carbamic acid methyl ester] registered a melting point of more than 275 °C.
As for `CNc1nc(-c2ccccc2)c(-c2nc3ccccc3c(=O)n2-c2ccc(C)cc2)s1` [Example 195, 2-(2-Methylamino-4-phenyl-thiazol-5-yl)-3-p-tolyl-3H-quinazolin-4-one], the melting point fell in the range of 192 to 193 °C.
Still for that read-out and setting: for `Cc1ccc(-n2c(-c3sc(NC(=O)c4ccccc4)nc3-c3ccccc3)nc3ccccc3c2=O)cc1` [Example 197, N-[5-(4-Oxo-3-p-tolyl-3,4-dihydro-quinazolin-2-yl)-4-phenyl-thiazole-2-yl]benzamide] the value was more than 275 °C; for `COc1ccccc1-n1c(-c2sc(Nc3ccccc3)nc2C)nc2ccccc2c1=O` [Example 202, 2-(4-Methyl-2-phenylamino-thiazol-5-yl)-3-(2-methoxyphenyl)-3H-quinazolin-4-one], 169 to 170 °C; for `COC(=O)Nc1nc(-c2ccccc2)c(-c2nc3ccccc3c(=O)n2-c2ccccc2OC)s1` [Example 204, [5-(4-Oxo-3-(2-methoxyphenyl)-3,4-dihydro-quinazolin-2-yl)-4-phenyl-thiazol-2-yl]-carbamic acid methyl ester], 228 to 230 °C.
On the same count and under the same terms, under `COc1cccc(-n2c(-c3sc(Nc4ccccc4)nc3C)nc3ccccc3c2=O)c1` [Example 210, 2-(4-Methyl-2-phenylamino-thiazol-5-yl)-3-(3-methoxyphenyl)-3H-quinazolin-4-one] stands more than 275 °C.
Same read-out and setting: under `COc1cccc(-n2c(-c3sc(Nc4ccc(Cl)cc4)nc3C)nc3ccccc3c2=O)c1` [Example 211, 2-[2-(4-Chlorophenylamino)-4-methyl-thiazol-5-yl]-3-(3-methoxyphenyl)-3H-quinazolin-4-one] stands 243 to 244 °C.
As for `CCOC(=O)Nc1nc(-c2ccccc2)c(-c2nc3ccccc3c(=O)n2-c2cccc(OC)c2)s1` [Example 212, [5-(4-Oxo-3-(3-methoxyphenyl)-3,4-dihydro-quinazolin-2-yl)-4-phenyl-thiazol-2-yl]-carbamic acid ethyl ester], the melting point was 204 to 205 °C.
Still for that read-out and setting: under `COc1ccc(-n2c(-c3sc(Nc4ccccc4)nc3C)nc3ccccc3c2=O)cc1` [Example 216, 2-(4-Methyl-2-phenylamino-thiazol-5-yl)-3-(4-methoxyphenyl)-3H-quinazolin-4-one] stands 265 to 266 °C; under `COC(=O)Nc1nc(-c2ccccc2)c(-c2nc3ccccc3c(=O)n2-c2ccc(OC)cc2)s1` [Example 219, [5-(4-Oxo-3-(4-methoxyphenyl)-3,4-dihydro-quinazolin-2-yl)-4-phenyl-thiazol-2-yl]-carbamic acid methyl ester], 272 to 274 °C; under `CNc1nc(-c2ccccc2)c(-c2nc3ccccc3c(=O)n2-c2ccc(OC)cc2)s1` [Example 220, 2-(2-Methylamino-4-phenyl-thiazol-5-yl)-3-(4-methoxyphenyl)-3H-quinazolin-4-one], 235 to 236 °C.
On the same count and under the same terms, under `Cc1ccc(C(=O)Nc2nc(-c3ccccc3)c(-c3nc4ccccc4c(=O)n3-c3ccccc3Cl)s2)cc1` [Example 236, 4-Methyl-N-[5-(4-oxo-3-(2-chloro-phenyl)-3,4-dihydroquinazolin-2-yl)-4-phenyl-thiazol-2-yl]-benzamide] stands more than 275 °C; under `COC(=O)Nc1nc(C)c(-c2nc3ccccc3c(=O)n2-c2ccc(C(C)=O)cc2)s1` [Example 260, (4-Methyl-5-(4-oxo-3-(4-acetyl-phenyl)-3,4-dihydro-quinazolin-2-yl)-thiazol-2-yl)-carbamic acid methyl ester], 232 to 234 °C; under `Cc1ccccc1-n1c(-c2cc(-c3ccncc3)c(N3CCOCC3)s2)nc2ccccc2c1=O` [Example 283, 2-(5-Morpholin-4-yl-4-pyridin-4-yl-thiophen-2-yl)-3-o-tolyl-3H-quinazolin-4-one], 208 to 210 °C.
On the same count and under the same terms, for `Cc1cccc(-n2c(-c3cc(-c4ccccc4)c(N4CCOCC4)s3)nc3ccccc3c2=O)c1` [Example 284, 2-(5-Morpholin-4-yl-4-phenyl-thiophene-2-yl)-3-m-tolyl-3H-quinazolin-4-one] the value was 194 to 196 °C; for `Cc1cccc(-n2c(-c3cc(-c4ccc(Cl)cc4)c(N4CCOCC4)s3)nc3ccccc3c2=O)c1` [Example 285, 2-[4-(4-Chloro-phenyl)-5-morpholin-4-yl-thiophen-2-yl]-3-m-tolyl-3H-quinazolin-4-one], 228 to 230 °C.
With `COc1ccccc1-n1c(-c2cc(-c3ccc(Cl)cc3)c(N3CCOCC3)s2)nc2ccccc2c1=O` [Example 295, 2-[4-(4-Chlorophenyl)-5-morpholin-4-yl-thiophene-2-yl]-3-(2-methoxy-phenyl)-3H-quinazolin-4-one], the melting point is 216 to 217 °C.
Still for that read-out and setting: under `COc1cccc(-n2c(-c3cc(-c4ccccc4)c(N4CCOCC4)s3)nc3ccccc3c2=O)c1` [Example 299, 3-(3-Methoxy-phenyl)-2-(5-morpholin-4-yl-4-phenyl-thiophen-2-yl)-3H-quinazolin-4-one] stands 269 to 272 °C; under `COc1ccc(-n2c(-c3cc(-c4ccccc4)c(N4CCOCC4)s3)nc3ccccc3c2=O)cc1` [Example 301, 3-(4-Methoxy-phenyl)-2-(5-morpholin-4-yl-4-phenyl-thiophen-2-yl)-3H-quinazolin-4-one], 164 to 165 °C; under `COc1ccc(-n2c(-c3cc(-c4ccc(Cl)cc4)c(N4CCOCC4)s3)nc3ccccc3c2=O)cc1` [Example 302, 2-[4-(4-Chloro-phenyl)-5-morpholin-4-yl-thiophene-2-yl]-3-(4-methoxy-phenyl)-3H-quinazolin-4-one], 217 to 218 °C.
Regarding `CNc1nc(-c2ccccc2)c(-c2nc3ccccc3c(=O)n2-c2ccccc2)s1` [Example 320, 2-(2-Methylamino-4-phenyl-thiazole-5-yl)-3-phenyl-3H-quinazolin-4-one], the melting point lay in the range of 224 to 225 °C.
The same measure, in the same setting: under `COc1ccc(Nc2nc(NC(=O)Nc3ccc(F)cc3)c(-c3cc(C)c(OCC(F)(F)F)cn3)s2)cc1` [Example 367, 1-(4-Fluoro-phenyl)-3-{2-(4-methoxy-phenylamino)-5-[4-methyl-5-(2,2,2-trifluoro-ethoxy)-pyridin-2-yl]-thiazol-4-yl}-urea] stands more than 280 °C.
